Results reported in ChEMBL document CHEMBL4049391, “Vicinal diaryl azole-based urea derivatives as potential cholesterol lowering agents acting through inhibition of SOAT enzymes” (Eur J Med Chem, 2017).
Active and inactive are the calls of the source. The rule behind the calls is not given here.

Columns and labels:
Rattus norvegicus [1] = test: Anti-hypercholesterolemic activity in poloxamer-407-induced Wistar rat lipoprotein lipase inhibition model assessed as fold change in triglyceride level at 20 mg/kg administered as single dose via oral gavage pretreated for 4 hrs followed by poloxamer-407 induction measured over 24 hrs (reference value: 80); format: functional
Rattus norvegicus [2] = test: Toxicity in Wistar rat assessed as effect on body weight at 10 mg/kg, po administered once daily measured after 4 weeks (reference value: 290.3 +/- 8.1 g); format: organism-based; settings: in vivo, 672 h
Rattus norvegicus [3] = test: Anti-atherosclerosis activity in high cholesterol diet-induced Wistar rat atherogenesis model assessed as reduction in fatty streak formation in thoracic aorta at 30 mg/kg, po administered once daily measured after 4 weeks by Sudan red 4 staining based photographic method; format: functional, organism-based
Rattus norvegicus [4] = test: Acute toxicity in Wistar rat assessed as effect on fur color at 2000 mg/kg, po administered as single dose measured up to 14 days; format: organism-based; settings: in vivo, 336 h
Rattus norvegicus [5] = test: (§1) Anti-atherosclerosis activity in high cholesterol diet-induced Wistar rat atherogenesis model assessed as lipid accumulation lesion area in thoracic aorta at 30 mg/kg, po administered once daily measured after 4 weeks by Sudan red 4 staining based photographic method relative to control; format: functional
Rattus norvegicus [6] = test: Anti-atherosclerosis activity in high cholesterol diet-induced Wistar rat atherogenesis model assessed as reduction in LDL-cholesterol level at 10 mg/kg, po administered once daily measured after 4 weeks; format: functional, organism-based
Rattus norvegicus [7] = test: Anti-atherosclerosis activity in po dosed high cholesterol diet-induced Wistar rat atherogenesis model assessed as reduction in serum total cholesterol level administered once daily measured after 4 weeks; format: functional, organism-based
Rattus norvegicus [8] = test: Acute toxicity in Wistar rat assessed as change in body weight at 2000 mg/kg, po administered as single dose measured at 6 hrs post dose; format: organism-based; settings: in vivo
Rattus norvegicus [9] = test: Acute toxicity in Wistar rat assessed as effect on normal behavior at 60 mg/kg, po administered as repeated dosing for 28 days; format: organism-based; settings: in vivo, 672 h
Rattus norvegicus [10] = test: Anti-atherosclerosis activity in high cholesterol diet-induced Wistar rat atherogenesis model assessed as reduction in LDL-cholesterol level at 30 mg/kg, po administered once daily measured after 4 weeks; format: functional, organism-based
Rattus norvegicus [11] = test: Acute toxicity in Wistar rat assessed as effect on water intake at 2000 mg/kg, po administered as single dose measured at 6 hrs post dose; format: organism-based; settings: in vivo
Rattus norvegicus [12] = test: Acute toxicity in Wistar rat assessed as macroscopic lesions in spleen at 2000 mg/kg, po administered as single dose measured up to 14 days; format: organism-based; settings: in vivo, 336 h
Rattus norvegicus [13] = test: Acute toxicity in Wistar rat assessed as changes in eyes at 2000 mg/kg, po administered as single dose measured up to 14 days; format: organism-based; settings: in vivo, 336 h
Rattus norvegicus [14] = test: Anti-atherosclerosis activity in high cholesterol diet-induced Wistar rat atherogenesis model assessed as atherogenic index at 10 mg/kg, po administered once daily measured after 4 weeks (reference value: 19.59 +/- 5.8); format: functional
Rattus norvegicus [15] = species on record: Rattus norvegicus; test: Inhibition of rat microsomal SOAT assessed as reduction in cholesteryl oleate formation from oleoyl co-enzyme A at 10 uM pretreated for 15 mins followed by oleoyl co-enzyme A addition measured after 10 mins by HPTLC method relative to control
Rattus norvegicus [16] = test: Acute toxicity in Wistar rat assessed as change in grooming behavior at 2000 mg/kg, po administered as single dose measured at 6 hrs post dose; format: organism-based; settings: in vivo
Rattus norvegicus [17] = test: Anti-atherosclerosis activity in high cholesterol diet-induced Wistar rat atherogenesis model assessed as reduction in triglyceride level at 10 to 30 mg/kg, po administered once daily measured after 4 weeks; format: functional, organism-based
Rattus norvegicus [18] = test: Acute toxicity in Wistar rat assessed as effect on viscera at 2000 mg/kg, po administered as single dose measured up to 14 days; format: organism-based; settings: in vivo, 336 h
[19] = Acute toxicity in Wistar rat assessed as mortality administered orally as single dose measured up to 14 days; settings: in vivo, po, read-out: CD50
Rattus norvegicus [20] = test: Anti-atherosclerosis activity in po dosed high cholesterol diet-induced Wistar rat atherogenesis model assessed as increase in HDL-cholesterol level administered once daily measured after 4 weeks; format: functional, organism-based
Rattus norvegicus [21] = test: Anti-atherosclerosis activity in high cholesterol diet-induced Wistar rat atherogenesis model assessed as reduction in lumenal lipid plaque formation in aortic roots at 10 to 30 mg/kg, po administered once daily measured after 4 weeks by Sudan red 4 staining based photographic method; format: functional, organism-based
Rattus norvegicus [22] = test: Anti-atherosclerosis activity in high cholesterol diet-induced Wistar rat atherogenesis model assessed as reduction in fatty streak formation in thoracic aorta at 10 mg/kg, po administered once daily measured after 4 weeks by Sudan red 4 staining based photographic method; format: functional, organism-based
Rattus norvegicus [23] = test: Acute toxicity in Wistar rat assessed as effect on food intake at 60 mg/kg, po administered as repeated dosing for 28 days; format: organism-based; settings: in vivo, 672 h
Rattus norvegicus [24] = test: Anti-atherosclerosis activity in high cholesterol diet-induced Wistar rat atherogenesis model assessed as effect on serum total cholesterol level at 30 mg/kg, po administered once daily measured after 4 weeks; format: functional
Rattus norvegicus [25] = test: Acute toxicity in Wistar rat assessed as effect on locomotion at 2000 mg/kg, po administered as single dose measured up to 14 days; format: organism-based; settings: in vivo, 336 h
Rattus norvegicus [26] = test: Acute toxicity in Wistar rat assessed as hematological changes at 60 mg/kg, po administered as repeated dosing for 28 days; format: organism-based; settings: in vivo, 672 h
Rattus norvegicus [27] = test: Acute toxicity in Wistar rat assessed as macroscopic lesions in kidney at 2000 mg/kg, po administered as single dose measured up to 14 days; format: organism-based; settings: in vivo, 336 h
Rattus norvegicus [28] = test: Acute toxicity in Wistar rat assessed as changes in adrenal gland shape at 2000 mg/kg, po administered as single dose measured up to 14 days; format: organism-based; settings: in vivo, 336 h
Rattus norvegicus [29] = test: Acute toxicity in Wistar rat assessed as macroscopic lesions in brain at 2000 mg/kg, po administered as single dose measured up to 14 days; format: organism-based; settings: in vivo, 336 h
Rattus norvegicus [30] = test: Acute toxicity in Wistar rat assessed as macroscopic lesions in liver at 2000 mg/kg, po administered as single dose measured up to 14 days; format: organism-based; settings: in vivo, 336 h
Rattus norvegicus [31] = test: Anti-atherosclerosis activity in high cholesterol diet-induced Wistar rat atherogenesis model assessed as reduction in VLDL-cholesterol level at 10 to 30 mg/kg, po administered once daily measured after 4 weeks; format: functional, organism-based
Rattus norvegicus [32] = test: Acute toxicity in Wistar rat assessed as effect on breathing at 2000 mg/kg, po administered as single dose measured up to 14 days; format: organism-based; settings: in vivo, 336 h
Rattus norvegicus [33] = test: Toxicity in Wistar rat assessed as effect on body weight at 30 mg/kg, po administered once daily measured after 4 weeks (reference value: 290.3 +/- 8.1 g); format: organism-based; settings: in vivo, 672 h
Rattus norvegicus [34] = test: Toxicity in Wistar rat assessed as adrenal toxicity at 10 to 30 mg/kg, po administered once daily measured after 4 weeks; format: organism-based; settings: in vivo, 672 h
Rattus norvegicus [35] = test: as §1, with “10” for “30”, “(reference value: 22.35 +/- 7.9%)” for “relative to control”; format: functional
Rattus norvegicus [36] = test: Acute toxicity in Wistar rat assessed as effect on urinary excretion at 60 mg/kg, po administered as repeated dosing for 28 days; format: organism-based; settings: in vivo, 672 h
Rattus norvegicus [37] = test: Acute toxicity in Wistar rat assessed as macroscopic lesions in adrenal gland at 2000 mg/kg, po administered as single dose measured up to 14 days; format: organism-based; settings: in vivo, 336 h
Rattus norvegicus [38] = test: Acute toxicity in Wistar rat assessed as effect on gastrointestinal tract at 2000 mg/kg, po administered as single dose measured up to 14 days; format: organism-based; settings: in vivo, 336 h

CCCCNC(=O)Nc1ccc(-c2sc(C)nc2-c2ccc(C)cc2)cc1
fold change (FC) (Rattus norvegicus [1]): 20 | Activity (Rattus norvegicus [2]): 294 g | Activity (Rattus norvegicus [3]): Active | Activity (Rattus norvegicus [4]): Non-Toxic | fold change (FC) (Rattus norvegicus [5]): 3 | Activity (Rattus norvegicus [6]): inactive | Activity (Rattus norvegicus [7]): Dose-dependent effect | Activity (Rattus norvegicus [8]): Non-Toxic | Activity (Rattus norvegicus [9]): Non-Toxic | Activity (Rattus norvegicus [10]): Active | Activity (Rattus norvegicus [11]): Non-Toxic | Activity (Rattus norvegicus [12]): Non-Toxic | Activity (Rattus norvegicus [13]): Non-Toxic | Activity_index (Rattus norvegicus [14]): 7.55 | inhibition (Rattus norvegicus [15]): 64.9% | Activity (Rattus norvegicus [16]): Non-Toxic | Activity (Rattus norvegicus [17]): inactive | Activity (Rattus norvegicus [18]): Non-Toxic | LD50 at 336 h [19]: > 2000 mg/kg | Activity (Rattus norvegicus [20]): Dose-dependent effect | Activity (Rattus norvegicus [21]): Active | Activity (Rattus norvegicus [22]): inactive | Activity (Rattus norvegicus [23]): Non-Toxic | Activity (Rattus norvegicus [24]): 138 mg/dL | Activity (Rattus norvegicus [25]): Non-Toxic | Activity (Rattus norvegicus [26]): Non-Toxic | Activity (Rattus norvegicus [27]): Non-Toxic | Activity (Rattus norvegicus [28]): Non-Toxic | Activity (Rattus norvegicus [29]): Non-Toxic | Activity (Rattus norvegicus [30]): Non-Toxic | Activity (Rattus norvegicus [31]): inactive | Activity (Rattus norvegicus [32]): Non-Toxic | Activity (Rattus norvegicus [33]): 299 g | Activity (Rattus norvegicus [34]): Non-Toxic | Activity (Rattus norvegicus [35]): 16.21% | Activity (Rattus norvegicus [36]): Non-Toxic | Activity (Rattus norvegicus [37]): Non-Toxic | Activity (Rattus norvegicus [38]): Non-Toxic
